Experimental data from US9867795B2, “Nitrated lipids and methods of making and using thereof” (The UAB Research Foundation, priority 2004, dated 2018).
Several values for one entry are separate records, joined by “and”; a condition that tells them apart may be missing. Identical values can stand only once. Entries after “also recorded” stand apart in the source; their conditions may differ.

Key:
[1] = system: 3T3-L1 preadipocytes; settings: for 3T3-L1 preadipocyte differentiation induced: two weeks, oil red O, LNO2 3 μM, OA-NO2 1 μM
[2] = system: 3T3-L1 adipocytes; assay: [^3H]-2-Deoxy-D-glucose uptake assay in differentiated 3T3-L1 adipocytes; format: cell-based; settings: test compounds for 2 days; LNO2 1-10 μM
Procedure: [^3H]-2-Deoxy-D-glucose Uptake Assay in Differentiated 3T3-L1 Adipocyte. [^3H]-2-Deoxy-D-glucose uptake assay as previously described (19) 3T3-L1 preadipocytes were grown in 24-well tissue culture plates, 2-day postconfluent preadipocytes were treated by 10 μg/ml insulin (Sigma), 1 μM dexamethasone (Sigma), and 0.5 mM 3-isobutyl-1-methylxanthine (Sigma) in DMEM containing 10% FBS for two days, then cells were kept in 10 μg/ml insulin also in DMEM containing 10% FBS for 6 days (changed medium every three days). Eight days after induction of adipogenesis, test compounds in DMEM containing 10% FBS were added for an additional 2 days (changed medium every day) and PPARγ-specific antagonist GW9662 were pretreated 1 h before other additions. After two rinses with serum-free DMEM, cells were incubated for 3 h in serum-free DMEM and rinsed at room temperature three times with freshly prepared KRPH buffer (5 mM phosphate buffer, 20 mM HEPES, 1 mM MgSO4, 1 mM CaCl2, 136 mM NaCl, 4.7 mM KCl, pH 7.4). The buffer was replaced with 1 μCi/ml of [^3H]-2-deoxy-D-glucose in KRPH buffer for 10 min at room temperature. The treated cells were rinsed carefully three times with cold PBS, lysed overnight in 0.8N NaOH (0.4 ml/well), and neutralized with […] of 12N HCl. Lysate (360 μl) was added to 4 ml Scinti-Safe Plus TM 50% in a scintillation vial, and the vials were mixed and counted.
[^3H]-2-Deoxy-D-glucose uptake assay in differentiated 3T3-L1 adipocytes. [^3H]-2-deoxy-D-glucose uptake was analyzed as previously (23). […] Cells were then rinsed three times with cold PBS, lysed overnight in 0.8 N NaOH (0.4 ml/well), neutralized with 26.6 μl of 12 N HCl and 360 μl of lysate was added into 4 ml Scinti-Safe Plus™ 50% for radioactivity determination by liquid scintillation counting.

[3] = LNO2 and OA-NO2 decay in phosphate buffer; format: physicochemical; settings: 3 μM, 100 mM phosphate buffer, pH 7.4, 37° C.
Procedure: LNO2 and OA-NO2 decay. […] During the two hour incubation, aliquots were removed and analyzed for LNO2 and OA-NO2 content. […] Non-decayed LNO2 and OA-NO2 were quantitated via HPLC ESI-MS/MS as described above.

[4] = Storage stability in CH3OH under argon at −80° C.; format: physicochemical; settings: in CH3OH/methanol under argon at −80° C.
Procedure: LNO2 synthesis. Linoleic acid/HgCl2/phenylselenium bromide/NaNO2 (1:1.3:1:1, mol/mol) were combined in THF/acetonitrile (1:1, v/v) with a final concentration of 0.15 M linoleic acid. Care was taken to use anhydrous solvents, dry glassware and reagents that had been dried in vacuo over phosphorus pentoxide. The reaction mixture was stirred (4 h, 25° C.) followed by centrifugation to sediment the precipitate. The supernatant was recovered, the solvent evaporated in vacuo, the product mixture redissolved in THF (original volume) and the temperature reduced to 0° C. A 10-fold molar excess of H2O2 was slowly added with stirring to the mixture then allowed to rest in an ice bath for 20 min followed by a gradual warming to room temp (45 min). The product mixture was extracted with equal parts saturated NaCl and diethyl ether, the organic phase collected, the solvent removed in vacuo and the lipid products were resolvated in CH2Cl2/CH3OH (4:1, v/v). […] Under these conditions, purified nitrated linoleic acid is stable for >3 months. Large scale purification of the individual positional isomers was performed by preparative HPLC using a 250×21.2 mm C18 Phenomenex Luna column (5 μm particle size). […]

10-nitro-9,12-octadecadienoic acid and 12-nitro-9,12-octadecadienoic acid [LNO2]
expression of adipocyte markers (PPARγ2 and aP2) ([1]; immunoblot of cell lysate): resulted in expression of specific adipocyte markers | 3T3-L1 preadipocyte differentiation induced [1]: > 30% and ~30% | [^3H]-2-deoxy-D-glucose uptake [2]: dose-dependent increase in glucose uptake; also recorded: greater than that observed for equimolar 15-deoxy-PGJ2, equivalent to Rosiglitazone; also recorded: paralleled | share degraded after 2 hr [3]: ~80% | time stable on storage [4]: > 3 months

9- and 10-nitro-9-cis-octadecenoic acid [OA-NO2]
3T3-L1 preadipocyte differentiation induced [1]: ~60% | [^3H]-2-deoxy-D-glucose uptake [2]: induced an increase; also recorded: induced significant increases in glucose uptake | decay after 2 hr [3]: only minimal decay | share degraded after 2 hr [3]: 25% | time stable on storage [4]: > 3 months
